Source: patent US8507485B2, “Cyclic compound having pyrimidinylalkylthio group” (Santen Pharmaceutical Co., Ltd., priority 2005, dated 2013)

Test system: HUVEC (human umbilical vein endothelial cells), VEGF-induced proliferation
Assay: Cell proliferation inhibitory action test using a VEGF-induced HUVEC proliferation reaction evaluation system
Type: cell-based
Conditions: 20 μg/mL test compound solution, 5 μL per well, WST-8 three days after VEGF addition, absorbance at 450 nm, control 1.0% DMSO; for inhibition at 20 µg/mL (stock): Homo sapiens, 72 h, read-out: Cell proliferation inhibition rate (%)
Experimental: In order to find the usefulness of the compound of the present invention, a test for inhibitory effects of the compound of the present invention on cell proliferation was carried out using a VEGF-induced HUVEC proliferation reaction evaluation system (HUVEC: human umbilical vein endothelial cells), which is a method of evaluating antiangiogenic effects of drugs, and the antiangiogenic effects of the compounds were evaluated.
As one of the widely used methods of evaluating antiangiogenic effects of drugs, a cell proliferation inhibitory action test using a VEGF-induced HUVEC proliferation reaction evaluation system has been reported in Cancer Res., 59, 99-106 (1999). According to the method described in the above-mentioned document, a cell proliferation inhibitory action test of the compound of the present invention was carried out, and the cell proliferation inhibition rate was calculated. Then, the antiangiogenic effect of each of the compound of the present invention was evaluated using the obtained rate as an index.
(Preparation of Test Compound Solution)
Each test compound was dissolved in dimethyl sulfoxide (hereinafter abbreviated as DMSO), and the obtained solution was diluted with a commercially available phosphate buffer solution (hereinafter abbreviated as PBS), whereby a 20 μg/mL test compound solution was prepared.
(Preparation of HUVEC Suspension)
HUVEC was suspended in F12K medium containing 0.5% fetal bovine serum (hereinafter abbreviated as FBS), whereby a 2×10^4 cells/mL HUVEC suspension was prepared.
(Preparation of VEGF Solution)
VEGF was dissolved in PBS containing 0.1% bovine serum albumin, and the obtained solution was diluted with F12K medium containing 0.5% FBS, whereby a 400 ng/mL VEGF solution was prepared.
(Test Method and Measurement Method)
1) The HUVEC suspension was inoculated in an amount of 100 μL into each well of a 96-well plate coated with type I collagen (2×10^3 cells per well).
2) One day after the inoculation, the test compound solution was added in an amount of 5 μL per well.
3) One hour after the addition of the test compound solution, the VEGF solution was added in an amount of 5 μL per well.
4) Three days after the addition of the VEGF solution, WST-8 assay reagent (Dojin Chemical Co., Ltd.) was added in an amount of 10 μL per well.
5) After 3 hours, the above-mentioned plate was attached to an absorptiometer (Multilabel Counter ARVO), and an absorbance at 450 nm of suspension in each well (hereinafter referred to as a test compound suspension) was measured.
6) A test was carried out in the same manner as in the above 1) to 5) except that 1.0% DMSO was used instead of the test compound solution. The result was used as a control.
Incubation was carried out under conditions of 37° C., 5% carbon dioxide and […] in an incubator throughout the above-mentioned test steps.
(Calculation of Cell Proliferation Inhibition Rate)
The cell proliferation inhibition rate (%), which was used as an index of an antiangiogenic effect, was calculated using the following calculation equation. Cell proliferation inhibition rate (%)=100−{(Absorbance of test compound suspension−A)/(absorbance of control−A)}×100 (Calculation Equation) A: Absorbance of only cell suspension (cells+medium) (Test Results and Discussion)

| SMILES | inhibition at 20 µg/mL (stock) [%] | Cell proliferation inhibition rate (%) |
| --- | --- | --- |
| Cc1cc(C)cc(NC(=O)c2cccnc2SCc2ccnc(N)n2)c1 [Compound 1-1, 2-(2-Aminopyrimidin-4-ylmethylthio)-N-(3,5-dimethylphenyl)pyridine-3-carboxamide] | 96 |  |
| CC(C)c1cccc(NC(=O)c2cccnc2SCc2ccnc(N)n2)c1 [Compound 1-7, 2-(2-Aminopyrimidin-4-ylmethylthio)-N-(3-isopropylphenyl)pyridine-3-carboxamide] | 96 |  |
| Nc1nccc(CSc2ncccc2C(=O)Nc2cc3ccccc3cn2)n1 [Compound 1-12, 2-(2-Aminopyrimidin-4-ylmethylthio)-N-(isoquinolin-3-yl)pyridine-3-carboxamide] | 84 |  |
| Cc1cc(C)cc(NC(=O)c2ccccc2SCc2ccnc(N)n2)c1 [Compound 1-16, 2-(2-Aminopyrimidin-4-ylmethylthio)-N-(3,5-dimethylphenyl)benzamide] | 100 |  |
| Cc1cc(C)cc(NC(=O)c2sccc2SCc2ccnc(N)n2)c1 [Compound 1-20, 3-(2-Aminopyrimidin-4-ylmethylthio)-N-(3,5-dimethylphenyl) thiophene-2-carboxamide] |  | 100 |
| Cc1cc(C)cc(NC(=O)c2cccnc2SCc2ccncn2)c1 [Compound 1-22, N-(3,5-Dimethylphenyl)-2-(pyrimidin-4-ylmethylthio)pyridine-3-carboxamide] | 100 |  |
| CSc1nccc(CSc2ncccc2C(=O)Nc2cc(C)cc(C)c2)n1 [Compound 1-26, N-(3,5-Dimethylphenyl)-2-(2-methylthiopyrimidin-4-ylmethylthio)pyridine-3-carboxamide] | 100 |  |
| CNc1nccc(CSc2ncccc2C(=O)Nc2cc(C)cc(C)c2)n1 [Compound 1-33, N-(3,5-Dimethylphenyl)-2-(2-methylaminopyrimidin-4-ylmethylthio)pyridine-3-carboxamide] | 100 |  |
| CC(=O)Nc1nccc(CSc2ncccc2C(=O)Nc2cc(C)cc(C)c2)n1 [Compound 2-1, 2-(2-Acetylaminopyrimidin-4-ylmethylthio)-N-(3,5-dimethylphenyl)pyridine-3-carboxamide] | 100 |  |
| CC(=O)Nc1nccc(CSc2ncccc2C(=O)Nc2ccc(Cl)cc2)n1 [Compound 2-2, 2-(2-Acetylaminopyrimidin-4-ylmethylthio)-N-(4-chlorophenyl)pyridine-3-carboxamide] | 97 |  |
| CC(=O)Nc1nccc(CSc2ncccc2C(=O)Nc2ccc3c(c2)CCC3)n1 [Compound 2-4, 2-(2-Acetylaminopyrimidin-4-ylmethylthio)-N-(indan-5-yl)pyridine-3-carboxamide] | 99 |  |
| CC(=O)N(C(C)=O)c1nccc(CSc2ncccc2C(=O)Nc2cc(C)cc(C)c2)n1 [Compound 3-1, 2-(2-Diacetylaminopyrimidin-4-ylmethylthio)-N-(3,5-dimethylphenyl)pyridine-3-carboxamide] | 100 |  |
| Cc1cc(C)cc(NC(=O)c2cccnc2SCc2ccnc(NC3CC3)n2)c1 [Compound 4-1, 2-(2-Cyclopropylaminopyrimidin-4-ylmethylthio)-N-(3,5-dimethylphenyl)pyridine-3-carboxamide] | 100 |  |
| Cc1cc(C)cc(NC(=O)c2cccnc2SCc2ccnc(N3CCOCC3)n2)c1 [Compound 4-4, N-(3,5-Dimethylphenyl)-2-(2-morpholinopyrimidin-4-ylmethylthio)pyridine-3-carboxamide] | 100 |  |
| O=C(Nc1ccc(OC(F)(F)F)cc1)c1cccnc1SCc1ccnc(NC2CC2)n1 [Compound 4-6, 2-(2-Cyclopropylaminopyrimidin-4-ylmethylthio)-N-(4-trifluoromethoxyphenyl)pyridine-3-carboxamide] | 100 |  |
| O=C(Nc1cccc(C(F)(F)F)c1)c1cccnc1SCc1ccnc(NC2CC2)n1 [Compound 4-9, 2-(2-Cyclopropylaminopyrimidin-4-ylmethylthio)-N-(3-trifluoromethylphenyl)pyridine-3-carboxamide] | 100 |  |
| Cc1cc(C)cc(NC(=O)c2cccnc2SCc2ccnc(NCCO)n2)c1 [Compound 4-19, N-(3,5-Dimethylphenyl)-2-[2-(2-hydroxyethyl)aminopyrimidin-4-ylmethylthio]pyridine-3-carboxamide] | 100 |  |
| CCOCCNc1nccc(CSc2ncccc2C(=O)Nc2ccc(OC(F)(F)F)cc2)n1 [Compound 4-22, 2-[2-(2-Ethoxyethyl)aminopyrimidin-4-ylmethylthio]-N-(4-trifluoromethoxyphenyl)pyridine-3-carboxamide] | 100 |  |
| Cc1cc(C)cc(NC(=O)c2cccnc2SCc2ccnc(N3CCN(CCO)CC3)n2)c1 [Compound 4-25, N-(3,5-Dimethylphenyl)-2-[2-(4-(2-hydroxyethyl)piperazin-1-yl)pyrimidin-4-ylmethylthio]pyridine-3-carboxamide] | 100 |  |
| O=C(Nc1cccc(C(F)(F)F)c1)c1cccnc1SCc1ccnc(N2CCNCC2)n1 [Compound 4-36, 2-[2-(piperazin-1-yl)pyrimidin-4-ylmethylthio]-N-(3-trifluorophenyl)pyridine-3-carboxamide] |  | 100 |
